Patent US12570682B2, “Method for increasing bulk density of nicotinamide mononucleotide crystal and crystal thereof” (BONTAC BIO-ENGINEERING (SHENZHEN) CO., LTD, priority 2021, dated 2026)
Where two headings read alike, the source gives them in different places.

How the values were obtained:
[1] = loose bulk density measurement of nicotinamide mononucleotide crystals (sieve, weigh, graduated cylinder); assay type: physicochemical
Procedure: Bulk densities mentioned below are all loose bulk densities, and specific values are measured by the following method: taking an object to be tested, sieving the object (1.00 mm No. 18), accurately weighing the object, slowly pouring the object into a glass graduated cylinder, scraping the top, recording an apparent volume, and calculating the bulk density; and taking 3 same samples for parallel measurement, recording the readings, and using an average value as a measurement result.

[2] = prior-art crystals (CN108697722A; CN11269505A embodiment data); cited from earlier work
[3] = CN11269505A embodiment data; cited from earlier work
[4] = loose bulk density, average of 3 parallel samples

NC(=O)c1ccc[n+]([C@@H]2O[C@H](COP(=O)([O-])O)[C@@H](O)[C@H]2O)c1 [Comparative Example 1, nicotinamide mononucleotide]
Bulk density [1, 4]: 0.23 g/mL

NC(=O)c1ccc[n+]([C@@H]2O[C@H](COP(=O)([O-])O)[C@@H](O)[C@H]2O)c1 [Comparative Example 2, nicotinamide mononucleotide]
Bulk density [1, 4]: 0.20 g/mL

NC(=O)c1ccc[n+]([C@@H]2O[C@H](COP(=O)([O-])O)[C@@H](O)[C@H]2O)c1 [Comparative Example 3, nicotinamide mononucleotide]
Bulk density [1, 4]: 0.40 g/mL

NC(=O)c1ccc[n+]([C@@H]2O[C@H](COP(=O)([O-])O)[C@@H](O)[C@H]2O)c1 [Comparative Example 4, nicotinamide mononucleotide]
Bulk density [1, 4]: 0.56 g/mL

NC(=O)c1ccc[n+]([C@@H]2O[C@H](COP(=O)([O-])O)[C@@H](O)[C@H]2O)c1 [Example 1, nicotinamide mononucleotide]
Bulk density ([1]; water content of semi-solid 1%, pH 3.5, ethanol, cooling 10° C./h to 10° C.): 1.05 g/mL
Bulk density ([1]; water content of semi-solid 5%, pH 3.5, ethanol, cooling 10° C./h to 10° C.): 1.03 g/mL
Bulk density ([1]; water content of semi-solid 10%, pH 3.5, ethanol, cooling 10° C./h to 10° C.): 0.89 g/mL
Bulk density ([1]; water content of semi-solid 15%, pH 3.5, ethanol, cooling 10° C./h to 10° C.): 0.77 g/mL
Bulk density ([1]; water content of semi-solid 20%, pH 3.5, ethanol, cooling 10° C./h to 10° C.): 0.67 g/mL
Bulk density ([1]; water content of semi-solid 25%, pH 3.5, ethanol, cooling 10° C./h to 10° C.): 0.56 g/mL
Bulk density ([1]; water content of semi-solid 35%, pH 3.5, ethanol, cooling 10° C./h to 10° C.): 0.44 g/mL
Bulk density ([1]; water content of semi-solid 50%, pH 3.5, ethanol, cooling 10° C./h to 10° C.): 0.33 g/mL
Bulk density ([1]; water content of semi-solid 75%, pH 3.5, ethanol, cooling 10° C./h to 10° C.): 0.26 g/mL

NC(=O)c1ccc[n+]([C@@H]2O[C@H](COP(=O)([O-])O)[C@@H](O)[C@H]2O)c1 [Example 2, nicotinamide mononucleotide]
Bulk density ([1]; cooling rate 1, crystallization end temperature 10, water content 10%, pH 3.5): 0.93 g/mL
Bulk density ([1]; cooling rate 1, crystallization end temperature 18, water content 10%, pH 3.5): 0.88 g/mL
Bulk density ([1]; cooling rate 3, crystallization end temperature 10, water content 10%, pH 3.5): 0.93 g/mL
Bulk density ([1]; cooling rate 5, crystallization end temperature 5, water content 10%, pH 3.5): 0.92 g/mL
Bulk density ([1]; cooling rate 5, crystallization end temperature 10, water content 10%, pH 3.5): 0.92 g/mL
Bulk density ([1]; cooling rate 5, crystallization end temperature 18, water content 10%, pH 3.5): 0.88 g/mL
Bulk density ([1]; cooling rate 10, crystallization end temperature 5, water content 10%, pH 3.5): 0.88 g/mL
Bulk density ([1]; cooling rate 10, crystallization end temperature 10, water content 10%, pH 3.5): 0.89 g/mL
Bulk density ([1]; cooling rate 10, crystallization end temperature 18, water content 10%, pH 3.5): 0.84 g/mL
Bulk density ([1]; cooling rate 15, crystallization end temperature 8, water content 10%, pH 3.5): 0.84 g/mL
Bulk density ([1]; cooling rate 15, crystallization end temperature 10, water content 10%, pH 3.5): 0.84 g/mL
Bulk density ([1]; cooling rate 15, crystallization end temperature 18, water content 10%, pH 3.5): 0.82 g/mL
Bulk density ([1]; cooling rate 15, crystallization end temperature 25, water content 10%, pH 3.5): 0.34 g/mL
Bulk density ([1]; cooling rate 20, crystallization end temperature 10, water content 10%, pH 3.5): 0.35 g/mL

NC(=O)c1ccc[n+]([C@@H]2O[C@H](COP(=O)([O-])O)[C@@H](O)[C@H]2O)c1 [Example 3, nicotinamide mononucleotide]
Bulk density ([1]; pH value of aqueous solution of NMN 3.5, water content 10%, cooling 10° C./h to 10° C.): 0.89 g/mL
Bulk density ([1]; pH value of aqueous solution of NMN 4.5, water content 10%, cooling 10° C./h to 10° C.): 1.08 g/mL
Bulk density ([1]; pH value of aqueous solution of NMN 5.0, water content 10%, cooling 10° C./h to 10° C.): 1.09 g/mL
Bulk density ([1]; pH value of aqueous solution of NMN 5.5, water content 10%, cooling 10° C./h to 10° C.): 1.09 g/mL
Bulk density ([1]; pH value of aqueous solution of NMN 6.0, water content 10%, cooling 10° C./h to 10° C.): 1.07 g/mL
Bulk density ([1]; pH value of aqueous solution of NMN 6.5, water content 10%, cooling 10° C./h to 10° C.): 1.08 g/mL
Bulk density ([1]; pH value of aqueous solution of NMN 7.0, water content 10%, cooling 10° C./h to 10° C.): 0.81 g/mL

NC(=O)c1ccc[n+]([C@@H]2O[C@H](COP(=O)([O-])O)[C@@H](O)[C@H]2O)c1 [Example 4, nicotinamide mononucleotide]
Bulk density [1, 4]: 1.02 g/mL

NC(=O)c1ccc[n+]([C@@H]2O[C@H](COP(=O)([O-])O)[C@@H](O)[C@H]2O)c1 [Example 5, nicotinamide mononucleotide]
Bulk density [1, 4]: 1.17 g/mL

NC(=O)c1ccc[n+]([C@@H]2O[C@H](COP(=O)([O-])O)[C@@H](O)[C@H]2O)c1 [Example 6, nicotinamide mononucleotide]
Bulk density [1, 4]: 1.21 g/mL

NC(=O)c1ccc[n+]([C@@H]2O[C@H](COP(=O)([O-])O)[C@@H](O)[C@H]2O)c1 [Example 7, nicotinamide mononucleotide]
Bulk density [1, 4]: 0.95 g/mL

NC(=O)c1ccc[n+]([C@@H]2O[C@H](COP(=O)([O-])O)[C@@H](O)[C@H]2O)c1 [Example 8, nicotinamide mononucleotide]
Bulk density [1, 4]: 1.24 g/mL

NC(=O)c1ccc[n+]([C@@H]2O[C@H](COP(=O)([O-])O)[C@@H](O)[C@H]2O)c1 [form 1, β-nicotinamide mononucleotide, reference compound]
Bulk density ([1]; loose bulk density, average of 3 parallel samples, listed as nicotinamide mononucleotide anhydrous crystal): 0.20 g/mL
Bulk density [2]: about 0.2 g/ml

NC(=O)c1ccc[n+]([C@@H]2O[C@H](COP(=O)([O-])O)[C@@H](O)[C@H]2O)c1 [form 2, β-nicotinamide mononucleotide]
Bulk density [2]: about 0.2 g/ml

NC(=O)c1ccc[n+]([C@@H]2O[C@H](COP(=O)([O-])O)[C@@H](O)[C@H]2O)c1 [high-density NMN, nicotinamide mononucleotide]
Bulk density [2]: 0.52 g/mL
tap density [3]: 0.71 g/mL
